Patent US20250092044A1, “Kinase Inhibitors” (Incyte Corporation, priority 2023, published 2025)
Values after ≈ are worked out from the molar mass of the structure shown. Where two headings read alike, the source gives them in different places.

How the values were obtained:
FaSSIF Solubility Assay = assay type: physicochemical; conditions: FaSSIF (fasted state simulated intestinal fluid), 25 °C, pH 6.5, fassif, thermodynamic from solid, FaSSIF pH=6.5, 25° C.
Text: The FaSSIF (Fasted State Simulated Intestinal Fluid) solubility assay can predict how an oral drug is likely to be dissolved and potentially absorbed in the upper intestine after drinking a glass of water. FaSSIF solubility assay utilizes biorelevant intestinal media (Biorelevant, Part #FFF01) comprised of physiological surfactants, bile salts, and phospholipids that are present in the gastrointestinal fluids it mimics. FaSSIF (pH=6.5) has the average pH of a fasted intestinal fluid with similar osmolarity. The FaSSIF buffer was prepared by adding 20 mL of phosphate buffer to FaSSIF Powder. The buffer was then added to the dry compound of interest at a concentration of 1 mg/mL and then incubated at 25° C. for 24 hours in a Rototherm Plus (Part #H2024). After incubation, the Eppendorf tubes were centrifuged and run on an Agilent 1260 LC-MS. The LC-MS method is a 5 min gradient method of 2% to 95% acetonitrile with water (0.05% TFA) using a Sunfire C18, 5 um 2.1×50 mm (Part #186002539) column. A dry reference compound of interest was diluted to a known 1 mg/mL concentration in 1:1 of water and acetonitrile. Step-wise serial dilutions were performed and run on an Agilent 1260 LC-MS using the same conditions to make a standard curve. The area under the curve is reported for the compound of interest in FaSSIF buffer and the reference standards. Calculations were performed and the predicted solubility, μg/mL, was reported for compounds of the examples.

[1] = In Vivo Pharmacokinetics (cynomolgus monkey); set-up: species or system Cynomolgus monkeys; conditions: both sexes, plasma
Description: Test compounds were administered to male Sprague Dawley rats or male and female Cynomolgus monkeys intravenously or via oral gavage. For intravenous (IV) dosing, test compounds were dosed at 1 mg/kg using a formulation of 10% dimethylacetamide (DMAC), 10% propylene glycol (PG) in acidified saline via IV bolus for rat or 10 min IV infusion for monkey. For oral (PO) dosing, test compounds were dosed at 3.0 mg/kg using 5% DMAC in 0.5% methylcellulose in citrate buffer (PH˜2.5). Blood samples were collected at predose and various time points up to 24 hours postdose. All blood samples were collected using EDTA as the anticoagulant and centrifuged to obtain plasma samples. The plasma concentrations of test compounds were determined by LC-MS/MS methods. The measured plasma concentrations were used to calculate PK parameters by standard noncompartmental methods using Phoenix® WinNonlin software program (version 8.0, Pharsight Corporation) or similar software. In rats and monkeys, cassette dosing of test compounds were conducted to obtain preliminary PK parameters. In vivo pharmacokinetic experiments with male beagle dogs may be performed under the conditions described above.

[2] = In Vivo Pharmacokinetics (mouse); conditions: plasma, PO
[3] = PO 3.0 mg/kg, read-out: CYNO PO AUC

SMILES | solubility at 24 h (FaSSIF Solubility Assay; read-out: Solubility Fassif) [µg/mL] | AUC [1, 3] [µM·h] | AUC ([1]; PO, 1 mg/kg) [µM·h] | solubility at 24 h (FaSSIF Solubility Assay; read-out: FaSSIF solubility) [µg/mL] | AUC [2] [µM·h]
[2H]C([2H])([2H])N(Cc1ccc(-c2[nH]c3ncc4c(c3c2-c2ccc3c(c2)COC3(C)C)n([C@@H]2CC[C@@H](NC(=O)OC)C2)c(=O)n4C([2H])([2H])[2H])cc1)C([2H])([2H])[2H] [Example 29, Methyl ((1R,3R)-3-(7-(4-((bis(methyl-d3)amino)methyl)phenyl)-8-(1,1-dimethyl-1,3-dihydroisobenzofuran-5-yl)-3-(methyl-d3)-2-oxo-3,6-dihydroimidazo[4,5-d]pyrrolo[2,3-b]pyridin-1(2H)-yl)cyclopentyl)carbamate] | > 500 | – | – | – | –
[2H]C([2H])([2H])n1c(=O)n([C@@H]2CC[C@@H](NC(=O)OC)C2)c2c3c(-c4ccc5c(cnn5C(C)C)c4)c(-c4ccc(CN(C)C)cc4)[nH]c3ncc21 [Example 26, Methyl ((1R,3R)-3-(7-(4-((dimethylamino)methyl)phenyl)-8-(1-isopropyl-1H-indazol-5-yl)-3-(methyl-d3)-2-oxo-3,6-dihydroimidazo[4,5-d]pyrrolo[2,3-b]pyridin-1(2H)-yl)cyclopentyl)carbamate] | > 500 | 0.5 to 1.5 | – | – | –
[2H]C([2H])([2H])N(Cc1ccc(-c2[nH]c3ncc4c(c3c2-c2ccc3c(c2)CC(C)(C)O3)n([C@@H]2CC[C@@H](NC(=O)OC)C2)c(=O)n4C([2H])([2H])[2H])cc1)C([2H])([2H])[2H] [Example 25, Methyl ((1R,3R)-3-(7-(4-((bis(methyl-d3)amino)methyl)phenyl)-8-(2,2-dimethyl-2,3-dihydrobenzofuran-5-yl)-3-(methyl-d3)-2-oxo-3,6-dihydroimidazo[4,5-d]pyrrolo[2,3-b]pyridin-1(2H)-yl)cyclopentyl)carbamate] | 50 to 500 (≈ 80.9 to 809 µM) | – | ≤ 0.5 | – | –
COC(=O)N[C@@H]1CC[C@@H](n2c(=O)n(C)c3cnc4[nH]c(-c5ccc(CN(C)C)cc5)c(-c5ccc(F)cc5)c4c32)C1 [Example 28, Methyl ((1R,3R)-3-(7-(4-((dimethylamino)methyl)phenyl)-8-(4-fluorophenyl)-3-methyl-2-oxo-3,6-dihydroimidazo[4,5-d]pyrrolo[2,3-b]pyridin-1(2H)-yl)cyclopentyl)carbamate] | > 500 | – | – | – | –
COc1nn(C)cc1-c1[nH]c2ncc3c(c2c1-c1ccc2c(cnn2C)c1)n(C1CCOCC1)c(=O)n3C [Comparative Example A, reference compound] | ≤ 50 | ≤ 0.5 | – | < 20 | > 1.5
[2H]C([2H])([2H])n1ncc2cc(-c3c(-c4cn(C)nc4OC)[nH]c4ncc5c(c34)n(C3CCOCC3)c(=O)n5C)ccc21 [Comparative Example B, reference compound] | ≤ 50 | ≤ 0.5 | – | – | –
COc1nn(C)cc1-c1[nH]c2ncc3c(c2c1-c1ccc2c(cnn2C)c1)n([C@H]1CC[C@@H](CC#N)CC1)c(=O)n3C [E, reference compound] | ≤ 50 | – | – | – | > 1.5
[2H]C([2H])([2H])N(Cc1ccc(-c2[nH]c3ncc4c(c3c2-c2ccc(OCCOC)cc2)n([C@@H]2CC[C@@H](NC(=O)OC)C2)c(=O)n4C([2H])([2H])[2H])cc1)C([2H])([2H])[2H] [Example 27, Methyl ((1R,3R)-3-(7-(4-((bis(methyl-d3)amino)methyl)phenyl)-8-(4-(2-methoxyethoxy)phenyl)-3-(methyl-d3)-2-oxo-3,6-dihydroimidazo[4,5-d]pyrrolo[2,3-b]pyridin-1(2H)-yl)cyclopentyl)carbamate] | > 500 | > 1.5 | – | – | –
